This note sets out measurements from PMC13327620, “A Deep‐Red‐Absorbing Osmium(II) Complex as a Photosensitizer for Photodynamic Therapy Inducing Immunogenic Cell Death” (Angewandte Chemie (International Ed. in English), 2026).

Structures are written as SMILES. Where two headings read alike, the source gives them in different places. Bounds are passed on as bounds.

The test system of test [1] is mouse colon adenocarcinoma (CT26) cells. In words: Resazurin cell viability assay, (photo)cytotoxicity, normoxia. The format is cell-based. Here is the method: Given that most ICD studies focus on breast, non‐small cell lung carcinoma, and colon cancer, and since ICD was first discovered in mouse colon cancer cells (CT26), we initially tested our compounds on CT26 cells. Cells were incubated with nine different concentrations (mainly from 0.01 to 100 µM) of the compounds for 4 h in the dark. Then, the diluted solutions containing the compounds were replaced by fresh medium, and the cells were either illuminated or kept in the dark for 1 h more. After 2 days, IC50 values (concentration of the agent inhibiting cell growth by 50%) were determined with the resazurin assay, using chlorin e6 (Ce6) and protoporphyrin IX (PpIX) for comparison (Figure S10). The clinically approved chlorin mixture Radachlorin contains ∼80% Ce6, while 5‐aminolevulinic acid (Ameluz and Levulan) and methyl 5‐aminolevulinate (Metvix and Metvixia) serve as precursors of PpIX. Therefore, Ce6 and PpIX were used for comparison purposes.
(100 U ml−1), streptomycin (100 U ml−1), and 1% L-glutamine. […]
All cells were incubated at 37 °C in a humidified atmosphere with 5 % CO2.
Normoxia. The in vitro viability of cells exposed to the complexes was determined using a resazurin assay. C ells were seeded in 96-well plates at densities of 4,000 cells/well for CT26, MC A205 and U-87 MG cells, and 8,000 cells/well for MRC-5 and NIH/3T3 cells. A fter 24 h of growth at 37 °C wit h 5% CO2, the medium was replaced with fresh medium containing various concentrations of the compounds . Following a 4- h incubation in the dark, the medium was refres hed , and the plates were exposed to irradiation usinga LUM OS -BIO photoreactor (At las Photonics).N on- ir rad iated plates were similarly refr eshed with medium and kept in the dark for the same duration. After a 40- h r ecov ery period, a f reshly pr epar ed resazurin solution (0.2 mg/mL) was added to each well, and the plates were left in the dark for 4 h before analysis on a B i o Te k Cytation 5 Cell Imaging Multimode Reader (Agil ent Technologies). […]
A general note: The colour change of resazurin is a common sign of viable cells or microbes.

The test system of the next test is CT26‐luc cells. In words: Annexin V-FITC/propidium iodide (AV/PI) cell viability assay by flow cytometry. The conditions noted are these: 740 nm LED light (60 min, 12.6 J cm^−2). The format is cell-based, mouse. As to the method: Following the gold standard assessment method, the Annexin V‐FITC/propidium iodide (AV/PI) dual staining assay was conducted to screen the suitable concentrations of each drug (Figure S25). In addition, to better monitor tumor growth in vivo, luciferase‐labelled tumor cells (CT26‐luc) were used for in vivo experiments by bioluminescence imaging. […] As the concentration of each drug was increased, the proportion of live cells decreased, while the percentage of dying cells (Q3, Annexin V^+/PI^−) and dead cells (Q2, Annexin V^+/PI^+ and Q1, Annexin V^−/PI^+) increased. The concentrations at which approximately 5% of the cells remained alive (IC95) were 600 µM for Cisplatin in the dark, 1.8 µM for Os2, and 6.5 µM for Ce6 upon 740 nm LED light irradiation (60 min, 12.6 J cm^−2). These concentrations were selected for the subsequent in vivo vaccination studies. […]
incubated for 24 h. Cells were then treat ed with the determined IC50 of complexes and irradiated or kept in the dark. Supernatants were collected 12 h post-t reatm ent, and the extracellular ATP content was measured with Adenosine 5′ -triphosphate (ATP) Bioluminescent Assay Kit (Sigma-Aldrich) according tomanufacturer ’s ins truction. […]
(§1) 556419) and PI (BD Biosciences, Catalog no.51- 66211E). CT26- luc cells were analyzed by flow cytometry (Beckm an Coulter Life Sciences, CytoFLEX LX Flow Cytometer). […]

A further test deals with MCA205 cells. The test is described as above. The format is cell-based, mouse. The conditions noted are these: MCA205, 740 nm LED light illumination.
Excerpt: Regarding the optimal dose of each drug for in vivo vaccination, we continued to follow the same standards as with CT26‐luc cells, using the concentration of each drug that results in approximately 5% of live cells as the in vivo dose. The testing method remained the same, using the AV/PI dual staining assay. Negative controls still included the untreated group (direct injection of PBS solution) and the non‐ICD inducer Cisplatin. Based on the in vitro HMGB‐1 release results, Ce6 was maintained as the positive control. For a more comprehensive comparison, we also added the platinum‐based chemotherapeutic agent Oxaliplatin as a non‐PS ICD inducer, serving as an additional positive control.
As the drug concentration increased, the cells gradually shifted to dying (Q3, Annexin V^+/PI^−) or dead (Q2, Annexin V^+/PI^+ and Q1, Annexin V^−/PI^+) state. For MCA205 cells, the concentrations corresponding to approximately 5% cell survival for each drug were 500 µM Cisplatin and 1400 µM Oxaliplatin in the dark, 5.5 µM Ce6 and 3 µM Os2 under 740 nm LED light illumination. […]
incubated for 24 h. Cells were then treat ed with the determined IC50 of complexes and irradiated or kept in the dark. Supernatants were collected 12 h post-t reatm ent, and the extracellular ATP content was measured with Adenosine 5′ -triphosphate (ATP) Bioluminescent Assay Kit (Sigma-Aldrich) according tomanufacturer ’s ins truction.
Cell viability assay f o r in vivo by flow cytometry
CT26-luc or MCA205 cells were seeded in 6-well plates at a density of 1 ×1 05 cells per well and cultured for 24 h at 37 °C with 5% CO 2. The medium was replaced by various concentrations of the compound dilutions in fresh medium.For Ce6 and Os2, after 4 h incubation in the dark, the medium w as r efr eshed and the plates wer e illuminated with a LUMOS-BIO photoreactor (Atlas Photonics), followed by an additional 20- h incubation in the dark. […]
as §1

As for `C=Cc1c(C)c2cc3nc(c(CC(=O)O)c4[nH]c(cc5nc(cc1[nH]2)C(C)=C5CC)c(C)c4C(=O)O)[C@@H](CCC(=O)O)[C@@H]3C` [Ce6, chlorin e6], the PI in test [1] (CT26, 480 nm) is given as >38; in test [1] (CT26, 510 nm) it was >70; in test [1] (CT26, 540 nm), >30; in test [1] (CT26, 595 nm) it was >20; in test [1] (CT26, 645 nm), >25; in test [1] (CT26, 670 nm), >51. Moreover, the PI in test [1] (CT26, 740 nm) is listed as >19; in test [1] (CT26, 770 nm), >4. Also, the “PI (phototoxicity index, IC50 dark/IC50 light)” value in test [1] (CT26, 620 nm) is >51. For the same molecule, the IC50 entry in test [1] (CT26, 770 nm, FWHM 12.5 nm, 15.30 J/cm^2) was “almost non‐phototoxic”; in test [1] (Mus musculus, CT26, CT26, dark, normoxia, read-out: IC50 Dark), > 100 µM; in test [1] (Mus musculus, CT26, light or radiation study, 1 h, CT26, 620 nm, 1.88 mW/cm^2, 60 min, normoxia, read-out: IC50 620 nm (1 h, 6.75 J/cm^2)) it was 1.98 ± 0.11 µM; in test [1] (Mus musculus, CT26, light or radiation study, CT26, 480 nm, FWHM 10 nm, 3.38 J/cm^2, read-out: IC50), 2.64 ± 0.42 µM; in test [1] (Mus musculus, CT26, light or radiation study, CT26, 510 nm, FWHM 15 nm, 2.44 J/cm^2, read-out: IC50), 1.43 ± 0.1 µM; in test [1] (Mus musculus, CT26, light or radiation study, CT26, 540 nm, FWHM 15 nm, 9.00 J/cm^2, read-out: IC50) it was 3.33 ± 0.44 µM. The IC50 in test [1] (Mus musculus, CT26, light or radiation study, CT26, 595 nm, FWHM 10 nm, 3.38 J/cm^2, read-out: IC50) turned out to be 5.1 ± 1.44 µM; in test [1] (Mus musculus, CT26, light or radiation study, CT26, 645 nm, FWHM 10 nm, 9.00 J/cm^2, read-out: IC50) it was 3.93 ± 0.67 µM; in test [1] (Mus musculus, CT26, light or radiation study, CT26, 670 nm, FWHM 10 nm, 13.50 J/cm^2, read-out: IC50), 1.97 ± 0.42 µM; in test [1] (Mus musculus, CT26, light or radiation study, CT26, 740 nm, FWHM 10 nm, 12.60 J/cm^2, read-out: IC50), 5.27 ± 0.46 µM; in test [1] (Mus musculus, CT26, light or radiation study, CT26, 770 nm, FWHM 12.5 nm, 15.30 J/cm^2, read-out: IC50) it was 25.4 ± 3.72 µM. Also, the “Concentration at which approximately 5% of the cells remained alive (IC95)” value in the test on CT26‐luc cells is given as 6.5 µM. Also, the “Concentration corresponding to approximately 5% cell survival” value in the test on MCA205 cells stood at 5.5 µM.
